Data as given in publication PMC6760013, “Synthesis and Inhibition Evaluation of New Benzyltetrahydroprotoberberine Alkaloids Designed as Acetylcholinesterase Inhibitors” (Frontiers in Chemistry, 2019).

Assays:
[1] = biological target: T1, AChE from Electrophorus electricus (eelAChE) type VI-S (Electrophorus electricus, UniProt O42275); assay: biochemical; conditions: for mechanism of inhibition: double-reciprocal (Lineweaver-Burk) plots; for IC50 / Ki: eelAChE-ICER; for IC50: 20 μL ACh stock 500 μM in 100 μL reaction mixture, non-linear regression; for Ki: ACh 10 to 150 μM, inhibitor 0, 10, 50 and 75 μM, Lineweaver-Burk replot, read-out: Ki (steady-state inhibition constant); for inhibition: pH 8, 10 μL of 1.0 mM compound stock in 100 μL reaction mixture, read-out: % Inhibition eelAChE-ICER
T1 construct: purchased Sigma-Aldrich type VI-S
Method: AChE from Electrophorus electricus (type VI-S) was immobilized in a fused-silica capillary tube (eelAChE-ICER) according to a previously reported protocol (Vanzolini et al., [2013]). An enzyme solution containing 2 units/mL eelAChE was used in the immobilization procedure. The LC-MS system was set up for the eelAChE-ICER as previously described (Vanzolini et al., [2013]). The mobile phase (15 mM ammonium acetate solution, pH 8.0) was infused by pump 1 at a flow rate of 50 μL/min and pump 2 delivered acetonitrile after the eelAChE-ICER at a flow rate of 50 μL/min. IT-MS parameters were: 3,713 V capillary voltage, 500 V end plate voltage, […] drying gas, 300°C drying temperature and 30 psi nebulizer. In addition, ACh ([M+H]^+ m/z 146) and Ch ([M+H]^+ m/z 104), were analyzed by MS operating in the manual MS^n mode under positive ionization (scan 50–550 m/z). Enzymatic activity was quantified using a Ch standard external calibration curve prepared in 15 mM ammonium acetate solution, pH 8.0 with the final concentration ranging from 5 to 350 μM. An aliquot (10 μL) of each solution was injected in triplicate into the system using an empty fused silica capillary. The calibration curve was obtained by plotting the Ch [M+H]^+ m/z 104 area against the injected Ch concentration.
Stock solutions of each compound were prepared in methanol at 1.0 mM. The enzymatic activity of eelAChE-ICER was measured in the presence and absence of each compound. Reactions mixtures were prepared by mixing 20 μL of ACh stock solution (350 μM, in 15mM ammonium acetate solution, pH 5.0) with 10 μL of methanol or stock solution of compounds (1.0 mM) and 70 μL ammonium acetate solution (15mM, pH 8.0). Each reaction mixture (10 μL) was injected into the LC-MS system. The percentage of inhibition (%I) was calculated by comparing the product peak area in the presence of tested compound with positive control (absence of inhibitors).
Final volumes were completed with 70 μL ammonium acetate solution (15mM, pH 8.0) and each reaction mixture (10 μL) was injected into the LC-MS system. The inhibition curve was obtained for each sample by plotting the percentage of inhibition vs. each corresponding inhibitor concentration, and the IC50 values were achieved by non-linear regression analysis using GraphPad Prism 5 software.
For this purpose, the eelAChE-ICER activity was evaluated under different concentrations of ACh (10 to 150 μM) and at the fixed concentration of derivative 1a and 1b (0, 10, 50, and 75 μM). Lineweaver-Burk plots were used to determine the action mechanism for the inhibitors.
A linear replot was obtained, and the division quotient between the linear and angular coefficients provided the Ki values.

AChE = tested on: AChE; design: method as in Loizzo et al., 2008; conditions: AChE inhibition; ref Loizzo et al., 2008; cited from earlier work
[2] = 20 μL ACh stock 350 μM, ammonium acetate 15 mM pH 8.0

T1 sequence (O42275 24-633): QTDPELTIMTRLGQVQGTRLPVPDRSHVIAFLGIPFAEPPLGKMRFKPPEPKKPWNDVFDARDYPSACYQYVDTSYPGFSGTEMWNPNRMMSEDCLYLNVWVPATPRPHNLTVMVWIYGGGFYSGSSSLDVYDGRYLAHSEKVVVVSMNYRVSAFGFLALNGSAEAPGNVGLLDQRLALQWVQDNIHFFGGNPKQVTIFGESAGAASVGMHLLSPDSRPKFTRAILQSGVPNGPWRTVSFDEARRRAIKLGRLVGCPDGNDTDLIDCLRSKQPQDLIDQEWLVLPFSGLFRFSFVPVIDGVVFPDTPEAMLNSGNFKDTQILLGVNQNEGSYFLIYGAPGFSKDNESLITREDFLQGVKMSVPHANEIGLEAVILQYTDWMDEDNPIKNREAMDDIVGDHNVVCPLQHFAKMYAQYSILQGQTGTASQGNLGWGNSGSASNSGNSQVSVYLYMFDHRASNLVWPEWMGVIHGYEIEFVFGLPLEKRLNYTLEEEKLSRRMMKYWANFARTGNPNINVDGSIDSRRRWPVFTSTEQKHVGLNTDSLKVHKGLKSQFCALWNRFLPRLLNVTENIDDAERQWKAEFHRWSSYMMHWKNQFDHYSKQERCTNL

Row | SMILES | inhibition [1, 2] [%] | IC50 (AChE) [µM] | further results
1 | COc1cc2c(cc1O)[C@@H]1Cc3ccc(O)c(OC)c3C[N@+]1(Cc1ccccc1)CC2 [1a, (7R,13aS)-7-benzylstepholidine] | 90.1 ± 2.04 | – | mechanism of inhibition [1]: non-competitive; IC50 [1]: 40.6 ± 1 µM; Ki [1]: 11.6 µM
2 | COc1cc2c(cc1O)[C@@H]1Cc3ccc(O)c(OC)c3C[N@@+]1(Cc1ccccc1)CC2 [1b, (7S,13aS)-7-benzylstepholidine] | 90.5 ± 2.48 | – | mechanism of inhibition [1]: non-competitive; IC50 [1]: 51.9 ± 1 µM; Ki [1]: 4.7 µM
3 | COc1cc2c(cc1OCc1ccccc1)[C@@H]1Cc3ccc(O)c(OC)c3CN1CC2 [1c, (S)-2-O-benzylstepholidine] | 35.2 ± 5.02 | – | –
4 | COc1cc2c(cc1O)[C@@H]1Cc3ccc(OCc4ccccc4)c(OC)c3CN1CC2 [1d, (S)-10-O-benzylstepholidine] | 46.3 ± 5.45 | – | –
5 | COc1cc2c(cc1OCc1ccccc1)[C@@H]1Cc3ccc(OCc4ccccc4)c(OC)c3CN1CC2 [1e, (S)-O, O-dibenzylstepholidine] | 43.6 ± 2.54 | – | –
6 | COc1cc2c(cc1O)C1Cc3ccc(O)c(OC)c3C[N+]1(C)CC2 (stereo not shown) [N-methyl stepholidine] | – | 31.3 | –
7 | COc1cc2c(cc1O)[C@@H]1Cc3ccc(O)c(OC)c3CN1CC2 [Stepholidine, stepholidine, reference compound] | < 50 | > 100 | % Inhibition eelAChE-ICER ([1]; 10 μL of 1.0 mM compound stock in 100 μL reaction mixture, 20 μL ACh stock 350 μM, ammonium acetate 15 mM pH 8.0): 40.2 ± 1.65%
8 | COc1cc2c(cc1O)-c1cc3ccc(O)c(OC)c3c[n+]1CC2 [stepharanine] | – | 14.1 | –
